From PubChem BioAssay (NCI)
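Cells were grown in 96-well plates and exposed to each compound for 48 hours at five concentrations; endpoints were interpolated linearly between bracketing concentrations, or set to the highest concentration if not reached. At the GI50, growth is halved. TGI: total growth inhibition.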

Legend:
Experiment in all cases: inhibition of tumour cell growth, NCI panel, 48 h
RPMI-8226 leukemia = system: RPMI-8226 leukemia
MDA-MB-435 = system: MDA-MB-435
OVCAR-3 ovarian = system: OVCAR-3 ovarian
K-562 leukemia = system: K-562 leukemia
M14 melanoma = system: M14 melanoma
BT-549 breast = system: BT-549 breast
UACC-257 melanoma = system: UACC-257 melanoma
HCC-2998 colon = system: HCC-2998 colon
SW-620 colon = system: SW-620 colon
HT29 colon = system: HT29 colon

In the case of COc1cc(C=NCC(=O)CSC(c2ccccc2)c2ccccc2)ccc1O, the GI50 (RPMI-8226 leukemia) is reported as 6.26 µM, the TGI (RPMI-8226 leukemia) is reported as 25.1 µM and the GI50 (MDA-MB-435) is reported as 14.3 µM. For the same compound, the TGI (MDA-MB-435) was 35.7 µM, the GI50 (OVCAR-3 ovarian) was 11.3 µM and the TGI (OVCAR-3 ovarian) was 24.9 µM. The GI50 (K-562 leukemia) was 4.73 µM, the TGI (K-562 leukemia) was 23.3 µM and the GI50 (M14 melanoma) was 13.2 µM. It also gave a TGI (M14 melanoma) of 25.9 µM, a GI50 (BT-549 breast) of 14 µM and a TGI (BT-549 breast) of 31.6 µM. The GI50 (UACC-257 melanoma) was 5.94 µM, the TGI (UACC-257 melanoma) was 18.7 µM and the GI50 (HCC-2998 colon) was 3.6 µM. For the same compound, the TGI (HCC-2998 colon) was 16.5 µM, the GI50 (SW-620 colon) was 15.5 µM and the TGI (SW-620 colon) was 31.4 µM. It also gave a GI50 (HT29 colon) of 15.3 µM and a TGI (HT29 colon) of 28.6 µM.

Compound CCN(CC)c1ccc(/C=N/N=C(N)N)cc1 has a GI50 (RPMI-8226 leukemia) of 2.84 µM, a TGI (RPMI-8226 leukemia) of 13.3 µM and a GI50 (MDA-MB-435) of 0.668 µM. It also gave a TGI (MDA-MB-435) of 3.04 µM, a GI50 (OVCAR-3 ovarian) of 2.21 µM and a TGI (OVCAR-3 ovarian) of 4.91 µM. For the same compound, the GI50 (K-562 leukemia) was 3.02 µM, the TGI (K-562 leukemia) was 16.4 µM and the GI50 (M14 melanoma) was 4 µM. For the same compound, the TGI (M14 melanoma) was 17 µM, the GI50 (BT-549 breast) was 6.84 µM and the TGI (BT-549 breast) was 33.9 µM. It also gave a GI50 (UACC-257 melanoma) of 5.2 µM, a TGI (UACC-257 melanoma) of 23.9 µM and a GI50 (HCC-2998 colon) of 4.68 µM. The TGI (HCC-2998 colon) was 17.3 µM, the GI50 (SW-620 colon) was 3.08 µM and the TGI (SW-620 colon) was 13.6 µM. The GI50 (HT29 colon) was 3.24 µM and the TGI (HT29 colon) was 10.8 µM.

S=C(Nc1ccc(-c2nc3ccccc3s2)cc1)Nc1ccc(-c2nc3ccccc3s2)cc1 was tested, and the GI50 (RPMI-8226 leukemia) was 34.6 µM, the TGI (RPMI-8226 leukemia) was > 100 µM and the GI50 (MDA-MB-435) was 24.8 µM. For the same compound, the TGI (MDA-MB-435) was 73 µM, the GI50 (OVCAR-3 ovarian) was 24.5 µM and the TGI (OVCAR-3 ovarian) was > 100 µM. The GI50 (K-562 leukemia) was 26.4 µM, the TGI (K-562 leukemia) was 87.6 µM and the GI50 (M14 melanoma) was 21.6 µM. It also gave a TGI (M14 melanoma) of 46.1 µM, a GI50 (BT-549 breast) of 9.36 µM and a TGI (BT-549 breast) of 40.1 µM. It also gave a GI50 (UACC-257 melanoma) of 24.5 µM, a TGI (UACC-257 melanoma) of 48 µM and a GI50 (HCC-2998 colon) of 17.4 µM. For the same compound, the TGI (HCC-2998 colon) was 31.2 µM, the GI50 (SW-620 colon) was 23.7 µM and the TGI (SW-620 colon) was 67.3 µM. For the same compound, the GI50 (HT29 colon) was 20.7 µM and the TGI (HT29 colon) was 55.9 µM.

In the case of CCCCC[C@H]1C/C=C2/C(=O)C=C[C@@H]2C/C=C\CCCC(=O)O1, the GI50 (RPMI-8226 leukemia) is reported as 0.117 µM, the TGI (RPMI-8226 leukemia) is reported as 0.366 µM and the GI50 (MDA-MB-435) is reported as 0.169 µM. For the same compound, the TGI (MDA-MB-435) was 0.588 µM, the GI50 (OVCAR-3 ovarian) was 0.182 µM and the TGI (OVCAR-3 ovarian) was 0.664 µM. It also gave a GI50 (K-562 leukemia) of 0.136 µM, a TGI (K-562 leukemia) of 22 µM and a GI50 (M14 melanoma) of 0.163 µM. For the same compound, the TGI (M14 melanoma) was 5.1 µM, the GI50 (BT-549 breast) was 0.147 µM and the TGI (BT-549 breast) was 0.468 µM. The GI50 (UACC-257 melanoma) was 0.105 µM, the TGI (UACC-257 melanoma) was 0.346 µM and the GI50 (HCC-2998 colon) was 0.096 µM. The TGI (HCC-2998 colon) was 0.179 µM, the GI50 (SW-620 colon) was 0.177 µM and the TGI (SW-620 colon) was 1.06 µM. It also gave a GI50 (HT29 colon) of 0.128 µM and a TGI (HT29 colon) of 0.278 µM.

With COc1ccc(C(=O)Cn2c(C(=O)c3ccc(Cl)cc3)nc(-c3ccccc3)c2-c2ccccc2)cc1 the GI50 (RPMI-8226 leukemia) was > 100 µM, the TGI (RPMI-8226 leukemia) was > 100 µM and the GI50 (MDA-MB-435) was > 100 µM. For the same compound, the TGI (MDA-MB-435) was > 100 µM, the GI50 (OVCAR-3 ovarian) was > 100 µM and the TGI (OVCAR-3 ovarian) was > 100 µM. For the same compound, the GI50 (K-562 leukemia) was > 100 µM, the TGI (K-562 leukemia) was > 100 µM and the GI50 (M14 melanoma) was > 100 µM. The TGI (M14 melanoma) was > 100 µM, the GI50 (BT-549 breast) was > 100 µM and the TGI (BT-549 breast) was > 100 µM. The GI50 (UACC-257 melanoma) was > 100 µM, the TGI (UACC-257 melanoma) was > 100 µM and the GI50 (HCC-2998 colon) was > 100 µM. The TGI (HCC-2998 colon) was > 100 µM, the GI50 (SW-620 colon) was > 100 µM and the TGI (SW-620 colon) was > 100 µM. For the same compound, the GI50 (HT29 colon) was > 100 µM and the TGI (HT29 colon) was > 100 µM.
